These results are taken from PMC10082216 (Nature Communications, 2023).

The test system of data set [1] is mature stage V gametocytes (NF54 strain). Nature of the data set: microbe, parasite or virus in culture. In kind it is cell-based, Plasmodium falciparum. Conditions: read-out: Stiffening IC50 (retention). As to the method: (§1) Screening was conducted as previously described. Briefly, mature stage V gametocytes (NF54 strain) were cultured in vitro, then exposed to the explored compounds and filtered thereafter through layers of microspheres (microsphiltration)[25],[28]. Stiffening activity was determined by comparing gametocytemia up and downstream from the microsphere layers after filtration of drug-exposed gametocytes in 384-well plates using a vacuum manifold. Gametocytemia was assessed using DNA (Sybr Green) and erythrocyte membrane (CellMask) staining. Killing effect was assessed by MitoTracker staining. We screened two small libraries, specifically the Pathogen Box from the Medicine for Malaria Venture and the Kinase Inhibitors Box from GSK (400 and 350 compounds, respectively, Fig. 1A, B), and furthermore the larger ReFrame repurposing library (12,805 compounds, Fig. 1C).
(§2) The Pathogen Box library (400 compounds, provided by MMV-Medicine for Malaria Ventures, Geneva, Switzerland), the Kinase Inhibitors Box library (350 compounds, provided by GSK-Glaxo SmithKline DDW Unit, Tres Cantos, Spain), and the ReFrame library (12,805 compounds provided by the California Institute for Biomedical Research-Calibr, La Jolla, CA, USA) were used according to the providers’ instructions. DMSO-solubilized compounds (10 mM stock concentration) were loaded in 384-well plates (Seahorse, cat. no. 201035−100). Two columns were left empty for the controls. For each compound, 5 nL were pre-spotted in a single well to reach a final concentration of 1.11 μM. The final volume for each well was 45 μl. Controls were prepared as follows: 22.5 nL of DMSO were loaded in 16 wells as negative controls (0.05% final concentration); 22.5 nL of NITD609 (provided by MMV, Geneva, Switzerland) 1 mM were loaded in 8 wells (0.5 μM final concentration), 17 nL of Calyculin A (Sigma, cat. no. C5552) […] were loaded in 6 wells (75 nM final concentration) and 225 nL of Gentian Violet (MolPort, cat. no. 002-133-551) 10 mM were loaded in the remaining 2 wells (50 μM final concentration). Plates were prepared in triplicate for the Pathogen Box and sextuplicate for the Kinase Inhibitors Box.
(§3) Plasmodium falciparum NF54 strain parasites (used for screening campaign) were cultured at 4% hematocrit in RBCs from informed blood donors (blood group A) as previously described. Parasites were taken from the -80 °C freezer, then rapidly melt for 1 minute in a 37 °C water bath. A saline solution was gently added to avoid the lysis. Firstly, NaCl dissolved at 12% in distilled water (1/5 of the volume measured in the cryovial) and then NaCl dissolved at 1.6% (9 times the cryovial’s volume). After that, fresh RBCs were added to allow parasites re-growth. Infected RBCs were kept in RPMI medium (Sigma-Aldrich, cat. no. R4130), supplemented with 10% of decomplemented human serum, hypoxanthine 50 mg/l (Sigma-Aldrich, cat. no. H9636). Biobank of Castilla y Leon and Centro de Transfusiones de Madrid as providers of human red blood cell concentrates. The production of gametocytes was induced from a 0.5% ring-stage parasitemia (day 0). Medium was changed daily to induce gametocytes differentiation, as previously described. At day 17, gametocytes were concentrated using a density gradient medium (NycoPrep 1.077, Progen cat. no. 1114550)[27]. Parasitemia was adjusted by FACS (SYBR-Green and MitoTracker double staining, 3–5% targeted). Hematocrit was adjusted to 0.5% by adding fresh RBCs and controlled by manual counting in a Neubauer chamber (Celeromics, cat. no. 717810). Finally, the gametocyte suspension was poured (45 μL/well) into the compound-containing 384-well microplate, then incubated 24 hours both for the screening campaign and the dose-response analysis. Both asexual and sexual stages were cultivated in RPMI 1640 supplemented with 25 mM HEPES, 50 mg/L hypoxanthine, 50 μg/mL gentami-cin, 10% pooled heat-inactivated human serum (A^+).

The nature of data set [2]: Hit scoring on safety in human subjects and pharmacokinetics. Conditions: for Score (PK): peak plasma concentration vs IC50. The text has this: Hits from the ReFrame library were further selected based on safety, preferably oral administration (high score if oral), and potential availability for widespread use.
Data set [3] has as its system mature stage V gametocytes (NF54 strain). Nature of the data set: High-throughput screening: killing effect by MitoTracker staining, primary screening at 1.11 µM and dose-response analysis. It counts as cell-based, Plasmodium falciparum. Conditions: stage V gametocytes NF54, 24 h, dose-response analysis, N/A = not active in dose-response analysis, read-out: Killing IC50. As to the method: as §1, §2, §3

Another data set relates to HepG2. Conditions: cited from earlier work.
Another data set relates to HEK293T. As to conditions: cited from earlier work.
A further data set concerns P.falciparum Dd2. Also on record: method as in previously published reports (Table S1 legend). Conditions: 72 h; results in previous assays; ref previously published reports (Table S1 legend); read-out: 72-h Dd2-SybrGreen PBFS assay IC50; cited from earlier work.
The mark [4] stands for this setting: Plasmodium falciparum, NF54, 24 h.
Where [5] appears, read: read-out: Cellular cytotoxicity assay IC50, HepG2, 72 h, second value of cell, ref previously published reports (Table S1 legend).
[6] abbreviates: read-out: Cellular cytotoxicity assay IC50, HEK293T, 72 h, first value of cell, ref previously published reports (Table S1 legend).
Where [7] appears, read: stage V gametocytes NF54, 24 h, dose-response analysis, N/A = not active in dose-response analysis.

As usually defined, the IC50 is the concentration at which inhibition is half-maximal.

Counter-ions that a name gives are not always drawn. Like-named read-outs stand apart in the source and are kept apart here.

Consider `COC1=C(OC)C(=O)C(CCCCCCCCCC[P+](c2ccccc2)(c2ccccc2)c2ccccc2)=C(C)C1=O` [Mitoquinone mesylate], for which the IC50 was determined as 12.1 µM in data set [1] (setting [4]) and 11.7 µM in data set [3] (setting [4]). Further, the “Score (safety)” value in data set [2] (human) was 3. Also, the “Score (PK)” value in data set [2] is 1 (Peak plasma concentration lower than 1/3 IC50 (Score = 1)).

In the case of `CC(=O)[O][Hg][c]1cc(C(C)(C)CC(C)(C)C)ccc1O` [Acetomeroctol], the IC50 in the data set on HepG2 (setting [5]) was 1.92 µM; in the data set on HEK293T (setting [6]) it was 0.462 µM; in data set [1] (setting [7]), 5 µM; in data set [3], 7.2 µM.

Turning to `CC(O)C(=O)O.Cc1[nH]c2ccccc2c1CCNCc1ccc(/C=C/C(=O)NO)cc1` [Panobinostat lactate], in data set [1] (setting [7]), the IC50 was found to be 0.22 µM. In data set [2], the “Score (safety)” value is 0 and the “Score (PK)” value was found to be 0. For the same molecule, the IC50 in data set [3] is 0.3 µM.

Take `CC(=O)OC[C@H]1O[C@@H]([S-])[C@H](OC(C)=O)[C@@H](OC(C)=O)[C@@H]1OC(C)=O.CCP(CC)CC.[Au+]` [Auranofin]: the IC50 came out at 3.5 µM in data set [1] (setting [7]) and 2.58 µM in data set [3]. The “Score (safety)” value in data set [2] is on record as 0. Moreover, the “Score (PK)” value in data set [2] is given as 0.

As to `Cn1cc(CNCC2CCN(c3ncc(C(=O)NO)cn3)CC2)c2ccccc21` [Quisinostat], the IC50 in data set [1] (setting [4]) turned out to be 3.5 µM. For the same molecule, in data set [2], the “Score (safety)” value was determined as 0 and the “Score (PK)” value was 0. Moreover, in data set [3] (setting [4]), the IC50 came out at 5.2 µM.

As to `CC[n+]1c(/C=C/c2ccc(N3CCCC3)cc2)cccc1/C=C/c1ccc(N2CCCC2)cc1.[I-]` [Stilbazium iodide], the half-maximal inhibitory concentration (IC50) in data set [1] (setting [7]) came out at 1.57 µM. In data set [2], the “Score (safety)” value turned out to be 0 and the “Score (PK)” value was 0. Besides, in data set [3], the IC50 worked out at 8.75 µM.

Turning to Tyrothricin, the concentration for half-maximal inhibition (IC50) was 1.9 µM in the data set with HepG2 and 1.8 µM in the data set with HEK293T.

As for `Cc1cc(Nc2ncc(Cl)c(Nc3ccccc3S(=O)(=O)C(C)C)n2)c(OC(C)C)cc1C1CCNCC1` [Ceritinib], the IC50 amounted to 10.5 µM in data set [1] (setting [4]) and 10 µM in data set [3] (setting [4]). Further, in data set [2], the “Score (safety)” value was 0. In addition, in data set [2], the “Score (PK)” value is listed as 0.

Turning to `COc1ccc(NC(=O)N2CCCCN3[C@H](CN(C)C)[C@H](c4ccc(C#Cc5ccccc5)cc4)[C@@H]3C2)cc1` [BRD-7929], the IC50 in data set [1] (setting [7]) was determined as 3.8 µM; in data set [3], 2.2 µM. In data set [2], the “Score (safety)” value is on record as 0. In addition, the “Score (PK)” value in data set [2] stood at 0.

For `CC(C)(C)NCc1ccc(Nc2ccnc3cc(Cl)ccc23)cc1O` [N-tert-butylisoquine], the concentration for half-maximal inhibition (IC50) in data set [1] (setting [4]) came to 9.45 µM. Further, in data set [2], the “Score (safety)” value was 0 and the “Score (PK)” value was found to be 0. For the same molecule, the half-maximal inhibitory concentration (IC50) in data set [3] (setting [4]) came to 9.55 µM.

As for `COc1ccc(-c2ccc3ncc4c(c3c2)n(-c2ccc(N3CCNCC3)c(C(F)(F)F)c2)c(=O)n4C)cn1` [NVP-BGT226], the IC50 in data set [1] (setting [4]) was 1.6 µM; in data set [3] (setting [4]) it was 0.013 µM. Also, the “Score (safety)” value in data set [2] is recorded as 0. In addition, the “Score (PK)” value in data set [2] is 2 (Peak plasma concentration between 1/3 IC50 and IC50 (Score = 2)).

Consider `CN(C)c1ccc2c(c1)Sc1cc(N(C)C)ccc1N2` [Leuco methylthioninium salt], for which, in data set [2], the “Score (safety)” value is recorded as 0 and the “Score (PK)” value is 0. Further, the IC50 in data set [3] is 23.2 µM.

`CO[C@H]1[C@H](O)[C@H](O[C@H]2CC[C@@]3(C=O)[C@H](CC[C@@H]4[C@@H]3CC[C@]3(C)[C@@H](C5=CC(=O)OC5)CC[C@]43O)C2)O[C@@H](C)[C@@H]1O` [Peruvoside]: the IC50 is 0.032 µM with HepG2 (setting [5]), 0.02 µM in the data set with HEK293T (setting [6]), 2.68 µM in data set [1] (setting [4]) and 9.95 µM in the data set on P.falciparum Dd2.

For `O=C(NCCN1CCCC1)c1cc(-c2ccc(CN3CCOCC3)cc2)nc2ccc(F)cc12` [DDD498], the IC50 is 2.6 µM in data set [1] (setting [4]), 0.004 µM with P.falciparum Dd2 and 1.7 µM in data set [3] (setting [4]). Also, the “Score (safety)” value in data set [2] stood at 0. In addition, in data set [2], the “Score (PK)” value turned out to be 0.

Take `COC(=O)C1=C(C)NC(C)=C(C(=O)OC)C1c1cc([N+](=O)[O-])ccc1OCCCCNCC(O)COc1ccccc1` (stereo not drawn) [YM 161514]: the IC50 in the data set on HepG2 is 3.97 µM; in data set [1] (setting [7]), 3.6 µM; in the data set on P.falciparum Dd2 it was 2.26 µM; in data set [3] it was 5.55 µM. In data set [2], the “Score (safety)” value is on record as 0. In addition, the “Score (PK)” value in data set [2] turned out to be 0.

In the case of `C[C@H]1O[C@@H](O[C@H]2[C@@H](O)C[C@H](O[C@H]3[C@@H](O)C[C@H](O[C@H]4CC[C@@]5(C)[C@H](CC[C@@H]6[C@@H]5CC[C@]5(C)[C@@H](C7=CC(=O)OC7)CC[C@]65O)C4)O[C@@H]3C)O[C@@H]2C)C[C@H](O)[C@@H]1O` [Digitoxin], the values for the half-inhibitory concentration (IC50) (in the data set on HepG2 (setting [5]); in the data set on HEK293T (setting [6]); in data set [1] (setting [4])) were 0.011 µM, 0.008 µM and 10.6 µM, respectively. Besides, in data set [2] (human), the “Score (safety)” value is recorded as 3. Also, in data set [2], the “Score (PK)” value is 0.

Turning to `CC(C)NC(=N)NC(=N)Nc1ccc(Cl)c(Cl)c1.Cl` [Chlorproguanil hydrochloride], the IC50 in data set [1] (setting [7]) was 10.3 µM. In data set [2], the “Score (safety)” value is recorded as 0 and the “Score (PK)” value is 1 (Peak plasma concentration lower than 1/3 IC50 (Score = 1)).

With `COc1cccc(CC(=O)N2CCC(n3c(C)nc4ccc(F)cc43)CC2)c1` [MMV020081], the figures for the IC50 in data set [1] (setting [7]) and in data set [3] were 1.47 µM and 29.3 µM, respectively.

Take `CCCC1(CCC)CCC2(CCN(CCCN(CC)CC)C2)CC1.O=C(O)/C=C\C(=O)O.O=C(O)/C=C\C(=O)O` [Atiprimod dimaleate]: in data set [2], the “Score (safety)” value is recorded as 0 and the “Score (PK)” value was 0. Besides, the IC50 in data set [3] is 6.67 µM.

As to Bismuth ethanedithiol, the half-maximal inhibitory concentration (IC50) in data set [1] (setting [7]) worked out at 1.5 µM; in data set [3], 1.3 µM.

`Cl[TeH]1(Cl)(Cl)OCCO1` [Ammonium trichlorotellurate]: the IC50 was 2.2 µM in data set [1] (setting [4]) and 13.7 µM in data set [3] (setting [4]).

With `C[CH2][Hg][S]c1ccccc1C(=O)[O-].[Na+]` [Thimerosal], the 50% inhibitory concentration (IC50) in data set [1] (setting [7]) is 0.93 µM; in data set [3] it was 1.5 µM.

With `COc1cc(N2CCN(C(C)C)CC2)ccc1Nc1nc(Nc2ccc(F)cc2C(N)=O)c2cc[nH]c2n1` [GSK1220512A], the IC50 in data set [1] (setting [4]) came to 2.31 µM; in data set [3] (setting [4]), 17 µM.

Take `COc1cccc2c1C(=O)c1c(O)c3c(c(O)c1C2=O)C[C@@](O)(C(C)=O)C[C@@H]3O[C@H]1C[C@H](N)[C@H](O)[C@H](C)O1` [Daunorubicin]: the figures for the IC50 (in the data set with HepG2; in the data set with HEK293T; in data set [1] (setting [4])) were 0.126 µM, 0.039 µM and 12 µM, respectively.
